One assay has as its target T1, LTD4 receptor (Cavia porcellus, UniProt Q2NNR5).
T1 construct: membrane preparation of guinea-pig lung tissue; from tissue; host or cells: guinea-pig lung membranes
T1 sequence (Q2NNR5 1-340): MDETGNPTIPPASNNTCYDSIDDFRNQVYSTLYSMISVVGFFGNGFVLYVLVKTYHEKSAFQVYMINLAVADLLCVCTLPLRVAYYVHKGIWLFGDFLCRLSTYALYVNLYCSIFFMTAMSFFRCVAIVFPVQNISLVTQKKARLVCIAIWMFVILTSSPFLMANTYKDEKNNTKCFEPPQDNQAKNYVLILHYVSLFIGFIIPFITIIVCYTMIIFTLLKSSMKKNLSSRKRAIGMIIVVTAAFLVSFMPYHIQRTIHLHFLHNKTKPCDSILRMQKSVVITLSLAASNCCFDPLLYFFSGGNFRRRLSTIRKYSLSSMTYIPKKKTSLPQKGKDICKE
Kind of assay: LTD4 RECEPTOR: inhibition of specific binding of [3H]-LTD4 to a membrane preparation of guinea-pig lung tissue. The note with it: [3H]-LTD4, guinea-pig lung membranes; for IC50: graphically from dose-response curves, read-out: LTD4 receptor (concentration of tested compound causing 50% inhibition of specific binding). As to the method: Inhibition of the specific binding of [^3 H]-LTD4 to a membrane preparation of guinea-pig lung tissue was assayed by a modification of a method reported by Bruns et al [Life Sciences, Vol. 33, pp. 645-653 (1983)]and the data presented in Table II are micromolar concentrations of the tested compound causing 50% ihibition of specific binding determined graphically from dose-response curves.

The next assay has as its target T2, 5-lipoxygenase (Rattus norvegicus, UniProt P12527).
T2 sequence (P12527 1-673): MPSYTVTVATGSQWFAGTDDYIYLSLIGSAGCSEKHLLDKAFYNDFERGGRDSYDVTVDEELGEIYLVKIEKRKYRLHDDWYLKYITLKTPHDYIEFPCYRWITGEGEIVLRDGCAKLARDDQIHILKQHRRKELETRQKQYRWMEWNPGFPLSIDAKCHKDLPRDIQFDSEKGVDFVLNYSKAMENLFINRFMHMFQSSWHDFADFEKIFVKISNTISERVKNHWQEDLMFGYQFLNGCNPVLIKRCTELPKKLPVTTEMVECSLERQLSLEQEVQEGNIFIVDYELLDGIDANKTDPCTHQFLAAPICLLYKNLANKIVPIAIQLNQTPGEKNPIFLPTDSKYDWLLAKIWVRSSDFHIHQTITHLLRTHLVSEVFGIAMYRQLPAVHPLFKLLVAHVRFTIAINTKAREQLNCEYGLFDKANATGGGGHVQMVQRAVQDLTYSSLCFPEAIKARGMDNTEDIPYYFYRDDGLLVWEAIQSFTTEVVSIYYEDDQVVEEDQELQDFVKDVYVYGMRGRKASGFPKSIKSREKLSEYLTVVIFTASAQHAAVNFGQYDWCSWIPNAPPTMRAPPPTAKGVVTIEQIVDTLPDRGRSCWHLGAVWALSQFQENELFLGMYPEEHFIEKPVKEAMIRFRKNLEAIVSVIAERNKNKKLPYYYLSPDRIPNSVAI
Kind of assay: 5-LIPOX: inhibition of Ca++ ionophore (A23187) induced release of 5-lipoxygenase products (leukotriene B4 and 5-HETE) from [14C]arachidonic acid pre-labelled rat peritoneal neutrophils. The note with it: A23187-induced release of leukotriene B4 and 5-HETE, graphically from dose-response curves, read-out: 5-LIPOX (concentration of test compound causing 50% inhibition of control response). In kind it is cell-based. An excerpt:
Inhibition of the Ca^++ ionophore (A23187) induced release of 5-lipoxygenase products, leukotriene B4 and 5-HETE, from [^14 C]arachidonic acid pre-labelled rat peritoneal neutrophils. Assayed by a modification of the method reported by Ahnfelt-Ronne et al [Biochemical Pharmacology, Vol. 31, No. 16, pp 2619-2624 (1982)]. Data presented in Table II are micromolar concentrations of test compound causing 50% inhibition of control response determined graphically from dose-response curves.

Data on 27 molecules can be found in patent US4751233A, “8[2-(imidazolyl)thio] and 8[2-(thiazolyl)thio]-5,6,7,8-tetrahydroquinolines, and anti-allergic use thereof” (Roussel Uclaf, priority 1985, dated 1988).

In the case of `c1cnc2c(c1)CCCC2Sc1nc2ccccc2s1` (stereo not shown) [Example 1, 8-(2-benzothiazolylthio)-5,6,7,8-tetrahydroquinoline], the IC50 at LTD4 receptor came out at 10 µM; at 5-lipoxygenase, 1.8 µM. For `COc1ccc2nc(SC3CCCc4cccnc43)[nH]c2c1` (stereo not shown) [Example 2, 8-(6-methoxy-1H-benzimidazol-2-ylthio)-5,6,7,8-tetrahydroquinoline], the IC50 at 5-lipoxygenase stood at 58 µM.

On to `c1cnc2c(c1)CCCC2Sc1nc2ccccc2[nH]1` (stereo not shown) [Example 3, 8-(1H-benzimidazol-2-ylthio)-5,6,7,8-tetrahydroquinoline], for which the IC50 is above 100 µM on LTD4 receptor and 35.1 µM at 5-lipoxygenase. As for `CCOC(=O)Cc1ccc2[nH]c(SC3CCCc4cccnc43)nc2c1` (stereo not shown) [Example 4, ethyl 2-[(5,6,7,8-tetrahydro-8-quinolinyl)-thio]-1H-benzimidazole-5-acetate], the IC50 on 5-lipoxygenase was determined as 20 µM.

As to `O=[N+]([O-])c1ccc2nc(SC3CCCc4cccnc43)[nH]c2c1` (stereo not shown) [Example 5, 8-(6-nitro-1H-benzimidazol-2-ylthio)-5,6,7,8-tetrahydroquinoline], the values for the IC50 on LTD4 receptor and at 5-lipoxygenase were above 100 µM and 6.6 µM, respectively. For `Cc1ccc2nc(SC3CCCc4cccnc43)[nH]c2c1` (stereo not shown) [Example 6, 8-(6-methyl-1H-benzimidazol-2-ylthio)-5,6,7,8-tetrahydroquinoline] the same measures were 74 µM and 5 µM. For `Clc1cc2nc(SC3CCCc4cccnc43)[nH]c2cc1Cl` (stereo not shown) [Example 7, 8-(5,6-dichloro-1H-benzimidazol-2-ylthio)-5,6,7,8-tetrahydroquinoline], the IC50 on 5-lipoxygenase was determined as 4.2 µM. For `Clc1ccc2nc(SC3CCCc4cccnc43)[nH]c2c1` (stereo not shown) [Example 8, 8-(6-chloro-1H-benzimidazol-2-ylthio)-5,6,7,8-tetrahydroquinoline], the IC50 on LTD4 receptor is 6.3 µM; at 5-lipoxygenase, 1.9 µM. The matching figures for `c1cnc2c(c1)CCCC2Sc1nc2ccccc2o1` (stereo not shown) [Example 9, 8-(2-benzoxazolylthio)-5,6,7,8-tetrahydroquinoline]: above 100 µM and 16.9 µM. Turning to `COC(=O)Cc1ccc2oc(SC3CCCc4cccnc43)nc2c1` (stereo not shown) [Example 10, methyl 2-[(5,6,7,8-tetrahydro-8-quinolinyl)-thio]benzoxazole-5-acetate], the results for the IC50 at LTD4 receptor and at 5-lipoxygenase were 12 µM and 14.1 µM, respectively. For `Clc1ccc2sc(SC3CCCc4cccnc43)nc2c1` (stereo not shown) [Example 11, 8-[(5-chloro-2-benzothiazolyl)thio]-5,6,7,8-tetrahydroquinoline], the IC50 was determined as 100 µM on LTD4 receptor and 1.5 µM at 5-lipoxygenase. For `Clc1ccc2nc(SC3CCCc4cccnc43)sc2c1` (stereo not shown) [Example 12] the same measures were 8.9 µM and 2.6 µM.

As to `CCOc1ccc2nc(SC3CCCc4cccnc43)sc2c1` (stereo not shown) [Example 13, 8-[(6-ethoxy-2-benzothiazolyl)thio]-5,6,7,8-tetrahydroquinoline], the IC50 amounted to 9 µM at LTD4 receptor and 1.2 µM at 5-lipoxygenase. Consider `O=c1[nH]c(SC2CCCc3cccnc32)nc2ccccc12` (stereo not shown) [Example 14, 2-[(5,6,7,8-tetrahydroquinoline-8-yl)thio]-4(3H)-quinazolinone], for which the IC50 at LTD4 receptor and at 5-lipoxygenase was above 100 µM in each case. With `Cc1ccc2nc(SC3CCCc4cccnc43)sc2c1` (stereo not shown) [Example 15, 8-[(6-methyl-2-benzothiazolyl)thio]-5,6,7,8-tetrahydroquinoline], the IC50 on LTD4 receptor was 9.5 µM; on 5-lipoxygenase, 2.3 µM. Regarding `O=[N+]([O-])c1ccc2sc(SC3CCCc4cccnc43)nc2c1` (stereo not shown) [Example 16, 8-[(5-nitro-2-benzothiazolyl)thio]-5,6,7,8-tetrahydroquinoline], the IC50 on LTD4 receptor is above 100 µM; on 5-lipoxygenase it was 2 µM.

As for `Cc1ccc2sc(SC3CCCc4cccnc43)nc2c1` (stereo not shown) [Example 17, 8-[(5-methyl-2-benzothiazolyl)thio]-5,6,7,8-tetrahydroquinoline], the IC50 came out at 7.1 µM at LTD4 receptor and 1.5 µM at 5-lipoxygenase. For `Clc1cc2nc(SC3CCCc4cccnc43)sc2cc1Cl` (stereo not shown) [Example 18, 8-[(5,6-dichloro-2-benzothiazolyl)thio]-5,6,7,8-tetrahydroquinoline] the same measures were 100 µM and 45 µM.

Consider `CCSc1ccc2nc(SC3CCCc4cccnc43)sc2c1` (stereo not shown) [Example 19, 8-[(6-ethylthio-2-benzothiazolyl)thio]-5,6,7,8-tetrahydroquinoline], for which the IC50 at LTD4 receptor is 1.7 µM; at 5-lipoxygenase it was 1.1 µM. On to `O=[N+]([O-])c1ccc2nc(SC3CCCc4cccnc43)sc2c1` (stereo not shown) [Example 20], for which the IC50 was above 100 µM on LTD4 receptor and 4 µM at 5-lipoxygenase. As to `FC(F)(F)c1ccc2sc(SC3CCCc4cccnc43)nc2c1` (stereo not shown) [Example 21, 8-[(5-trifluoromethyl-2-benzothiazolyl)thio]-5,6,7,8-tetrahydroquinoline], the IC50 on LTD4 receptor was determined as 18 µM; at 5-lipoxygenase, 2.6 µM. For `Clc1cc(Cl)c2nc(SC3CCCc4cccnc43)sc2c1` (stereo not shown) [Example 22, 8-[(4,6-dichloro-2-benzothiazolyl)thio]-5,6,7,8-tetrahydroquinoline] the same measures were above 100 µM and 22 µM.

In the case of `Clc1cccc2sc(SC3CCCc4cccnc43)nc12` (stereo not shown) [Example 23], the IC50 came to 33 µM on LTD4 receptor and 12 µM at 5-lipoxygenase. For the molecule `Cc1cccc2sc(SC3CCCc4cccnc43)nc12` (stereo not shown) [Example 24, 8-[(4-methyl-2-benzothiazolyl)thio]-5,6,7,8-tetrahydroquinoline], the IC50 at LTD4 receptor was 14 µM; at 5-lipoxygenase it was 3.5 µM. As for `c1ccc(-c2nc(SC3CCCc4cccnc43)[nH]c2-c2ccccc2)cc1` (stereo not shown) [Example 25, 8-(4,5-diphenyl-1H-imidazol-2-ylthio)-5,6,7,8-tetrahydroquinoline], the results for the IC50 on LTD4 receptor and on 5-lipoxygenase were above 100 µM and 3 µM, respectively. Further, the “LTD4 receptor, remark printed beside the value” on LTD4 receptor (remark in words) is reported as “pot”. Turning to `Cn1ccnc1SC1CCCc2cccnc21` (stereo not shown) [Example 26, 8-(1-methylimidazol-2-ylthio)-5,6,7,8-tetrahydroquinoline], the IC50 at LTD4 receptor and on 5-lipoxygenase was above 100 µM throughout. As for `c1cnc2c(c1)CCCC2Sc1nccs1` (stereo not shown) [Example 27, 8-(2-thiazolylthio)-5,6,7,8-tetrahydroquinoline], the IC50 at LTD4 receptor is above 100 µM; on 5-lipoxygenase, 25.1 µM.
